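Protocol summary: plate cells (96-well), add compound at 5 concentrations, incubate 48 h, interpolate endpoints linearly. GI50 = concentration required for 50% inhibition of growth.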 Activity calls are given as the source filed them. No stated cut-off is given here; in the data, active = GI50 up to about 1.1 µM and inactive = higher.
Tests used:
Assay in all cases: growth of human tumour cells (NCI), 48 h
[1] = tested on: HOP-62
[2] = tested on: SK-MEL-28
[3] = tested on: TK-10
[4] = tested on: HCC 2998
[5] = tested on: UACC-257
[6] = tested on: SF-539
[7] = tested on: HCT-15
[8] = tested on: SF-295
[9] = tested on: RPMI-8226
[10] = tested on: K562
[11] = tested on: U-251
[12] = tested on: SW-620
[13] = tested on: OVCAR-8
[14] = tested on: SNB-19
[15] = tested on: NCI-H522
[16] = tested on: PC-3
[17] = tested on: COLO 205
[18] = tested on: UO-31
[19] = tested on: IGROV-1
[20] = tested on: CCRF-CEM
[21] = tested on: HT-29
[22] = tested on: A549
[23] = tested on: MDA-MB-435
[24] = tested on: UACC-62
[25] = tested on: BT-549
[26] = tested on: ACHN
[27] = tested on: OVCAR-3
[28] = tested on: KM12
[29] = tested on: SK-MEL-2
[30] = tested on: SR
[31] = tested on: Hs-578T
[32] = tested on: NCI-H226
[33] = tested on: T47D
[34] = tested on: SK-MEL-5
[35] = tested on: 786-0
[36] = tested on: NCI-H23
[37] = tested on: HL-60
[38] = tested on: MDA-MB-231
[39] = tested on: LOX IMVI
[40] = tested on: MCF7
[41] = tested on: EKVX
[42] = tested on: OVCAR-4
[43] = tested on: RXF 393
[44] = tested on: CAKI-1
[45] = tested on: SK-OV-3
[46] = tested on: SNB-75
[47] = tested on: M14
[48] = tested on: A498
[49] = tested on: NCI-H460
[50] = tested on: NCI/ADR-RES
[51] = tested on: SN12C
[52] = tested on: SF-268
[53] = tested on: Malme-3M
[54] = tested on: HOP-92
[55] = tested on: OVCAR-5
[56] = tested on: HCT-116
[57] = tested on: MOLT-4
[58] = tested on: DU-145

CC(=O)O[C@H]1[C@@H](N2CCCCC2)C[C@H]2[C@@H]3CC=C4C[C@@H](N5CCCC5)CC[C@]4(C)[C@H]3CC[C@@]21C
GI50 [1]: 49.8 µM (inactive)
GI50 [2]: 22 µM (inactive)
GI50 [3]: > 100 µM (inactive)
GI50 [4]: 14.3 µM (inactive)
GI50 [5]: 30.8 µM (inactive)
GI50 [6]: 17.8 µM (inactive)
GI50 [7]: 19.4 µM
GI50 [8]: 67.5 µM (inactive)
GI50 [9]: 26.5 µM (inactive)
GI50 [10]: 4.07 µM (inactive)
GI50 [11]: 69 µM (inactive)
GI50 [12]: > 100 µM (inactive)
GI50 [13]: > 100 µM (inactive)
GI50 [14]: > 100 µM (inactive)
GI50 [15]: > 100 µM (inactive)
GI50 [16]: 43.4 µM (inactive)
GI50 [17]: > 100 µM (inactive)
GI50 [18]: > 100 µM (inactive)
GI50 [19]: > 100 µM (inactive)
GI50 [20]: 31.9 µM (inactive)
GI50 [21]: 15.3 µM (inactive)
GI50 [22]: > 100 µM (inactive)
GI50 [23]: 28.6 µM (inactive)
GI50 [24]: > 100 µM (inactive)
GI50 [25]: > 100 µM (inactive)
GI50 [26]: > 100 µM (inactive)
GI50 [27]: > 100 µM (inactive)
GI50 [28]: > 100 µM (inactive)
GI50 [29]: > 100 µM (inactive)
GI50 [30]: 2.74 µM (inactive)
GI50 [31]: > 100 µM (inactive)
GI50 [32]: > 100 µM (inactive)
GI50 [33]: > 100 µM (inactive)
GI50 [34]: 32.4 µM (inactive)
GI50 [35]: 36.7 µM (inactive)
GI50 [36]: > 100 µM (inactive)
GI50 [37]: 24.9 µM (inactive)
GI50 [38]: > 100 µM (inactive)
GI50 [39]: 35.6 µM (inactive)
GI50 [40]: > 100 µM (inactive)
GI50 [41]: > 100 µM (inactive)
GI50 [42]: > 100 µM (inactive)
GI50 [43]: 32.7 µM (inactive)
GI50 [44]: > 100 µM (inactive)
GI50 [45]: > 100 µM (inactive)
GI50 [46]: > 100 µM (inactive)
GI50 [47]: 19.2 µM (inactive)
GI50 [48]: > 100 µM (inactive)
GI50 [49]: 91.6 µM (inactive)
GI50 [50]: > 100 µM (inactive)
GI50 [51]: > 100 µM (inactive)
GI50 [52]: > 100 µM (inactive)
GI50 [53]: 22.8 µM (inactive)
GI50 [54]: 91.8 µM (inactive)
GI50 [55]: 48.6 µM (inactive)
GI50 [56]: 64.3 µM (inactive)
GI50 [57]: 44.5 µM (inactive)

CCOC(=O)C1=C(C)N(c2ccc(Cl)cc2)C2(O)C=CC(Nc3ccc(Cl)cc3)=C3C(=O)N(c4ccccc4)C(=O)C312 (centres undefined)
GI50 [1]: 1.63 µM (inactive)
GI50 [2]: 2.36 µM (inactive)
GI50 [3]: 13.6 µM (inactive)
GI50 [58]: 4.27 µM (inactive)
GI50 [5]: 13.3 µM (inactive)
GI50 [6]: 3.87 µM (inactive)
GI50 [7]: 3.45 µM
GI50 [8]: 3.18 µM (inactive)
GI50 [9]: 1.32 µM (inactive)
GI50 [10]: 3.23 µM (inactive)
GI50 [11]: 4.85 µM (inactive)
GI50 [12]: 3.74 µM (inactive)
GI50 [13]: 3.64 µM (inactive)
GI50 [14]: 5.68 µM (inactive)
GI50 [15]: 1.34 µM (inactive)
GI50 [16]: 2.94 µM (inactive)
GI50 [17]: 2.44 µM (inactive)
GI50 [18]: 4.89 µM (inactive)
GI50 [19]: 5.36 µM (inactive)
GI50 [20]: 1.64 µM (inactive)
GI50 [21]: 3.66 µM (inactive)
GI50 [22]: 3.52 µM (inactive)
GI50 [23]: 1.78 µM (inactive)
GI50 [24]: 1.44 µM (inactive)
GI50 [25]: 1.54 µM (inactive)
GI50 [26]: 6.75 µM (inactive)
GI50 [27]: 0.313 µM (active)
GI50 [28]: 4.34 µM (inactive)
GI50 [29]: 2.58 µM (inactive)
GI50 [30]: 2.88 µM (inactive)
GI50 [31]: 5.51 µM (inactive)
GI50 [33]: 3.84 µM (inactive)
GI50 [34]: 2.39 µM (inactive)
GI50 [36]: 5.42 µM (inactive)
GI50 [37]: 2.97 µM (inactive)
GI50 [38]: 4.25 µM (inactive)
GI50 [39]: 1.67 µM (inactive)
GI50 [40]: 2.05 µM (inactive)
GI50 [42]: 3.15 µM (inactive)
GI50 [44]: 1.87 µM (inactive)
GI50 [45]: 8.85 µM (inactive)
GI50 [46]: 4.18 µM (inactive)
GI50 [47]: 3.13 µM (inactive)
GI50 [48]: 1.83 µM (inactive)
GI50 [49]: 2.11 µM (inactive)
GI50 [50]: 2.75 µM (inactive)
GI50 [51]: 2.45 µM (inactive)
GI50 [52]: 2.4 µM (inactive)
GI50 [53]: 7.71 µM (inactive)
GI50 [54]: 0.791 µM (active)
GI50 [55]: 3.96 µM (inactive)
GI50 [57]: 2.12 µM (inactive)

— ChEMBL document CHEMBL1201862, “PubChem BioAssay data set” (2004)
